Reference: the NIST ThermoML archive (doi:10.1016/j.tca.2005.10.008)

Key:
[1] = xn = mol fraction of the nth substance listed; conditions: 303.15 K, 101 kPa, Liquid; for viscosity: Capillary tube (Ostwald / Ubbelohde) method; for excess molar volume: Direct dilatometry; for speed of sound: Linear variable-path acoustic interferometer
[2] = Liquid; for mass density: 101.33 kPa, Pycnometric method; for viscosity / speed of sound: 101.3 kPa; for viscosity: Capillary tube (Ostwald / Ubbelohde) method; for speed of sound: Linear variable-path acoustic interferometer; for Normal boiling temperature: Distillation

CC(C)OC(C)C [diisopropyl ether] + CCCCCCCC
[1]
Conditions | excess molar volume [m3/mol] | speed of sound [m/s] | viscosity [mPa·s]
x1 = 0.165 | 1.58e-07 | 1125.5 | 0.464
x1 = 0.2501 | 2.26e-07 | 1112.3 | 0.451
x1 = 0.3816 | 2.95e-07 | 1090.5 | 0.429
x1 = 0.4395 | 3.04e-07 | 1080.3 | 0.417
x1 = 0.4911 | 3.02e-07 | 1071.7 | 0.404
x1 = 0.6217 | 2.78e-07 | 1048.3 | 0.381
x1 = 0.7805 | 2.03e-07 | 1018.9 | 0.36
x1 = 0.8706 | 1.26e-07 | 1000.4 | 0.354
x1 = 1 | – | 974.9 | 0.35

C1CCC2CCCCC2C1 (centres undefined) [decahydronaphthalene]
[2]
Conditions | mass density [kg/m3] | speed of sound [m/s] | viscosity [mPa·s]
298.15 K | 879.14 | – | –
303.15 K | 868.5 | 1404 | 2.091

Conditions | Normal boiling temperature [°C]
[2] | 191.10

CC(C)OC(C)C [diisopropyl ether] + CCCCCC
[1]
Conditions | excess molar volume [m3/mol] | speed of sound [m/s] | viscosity [mPa·s]
x1 = 0.1305 | 1.37e-07 | 1039.2 | 0.312
x1 = 0.2555 | 2.45e-07 | 1027.5 | 0.315
x1 = 0.392 | 3.26e-07 | 1016 | 0.319
x1 = 0.4661 | 3.44e-07 | 1009.9 | 0.321
x1 = 0.5633 | 3.34e-07 | 1002.6 | 0.325
x1 = 0.605 | 3.25e-07 | 999.6 | 0.326
x1 = 0.7173 | 2.79e-07 | 992.4 | 0.331
x1 = 0.846 | 1.74e-07 | 984.4 | 0.338
x1 = 1 | – | 974.9 | 0.35

c1ccccc1 [benzene]
[2]
Conditions | mass density [kg/m3] | speed of sound [m/s] | viscosity [mPa·s]
298.15 K | 873.64 | – | –
303.15 K | 868.39 | 1275.5 | 0.566

Conditions | Normal boiling temperature [°C]
[2] | 80.00

c1ccccc1 [benzene] + CC(C)OC(C)C
[1], x2 = 0
Conditions | speed of sound [m/s] | viscosity [mPa·s]
– | 1275.5 | 0.566

C1CCCCC1 [cyclohexane] + CC(C)OC(C)C
[1], x2 = 0
Conditions | speed of sound [m/s] | viscosity [mPa·s]
– | 1231 | 0.793

CC(C)OC(C)C [diisopropyl ether] + CCCCCCC
[1]
Conditions | excess molar volume [m3/mol] | speed of sound [m/s] | viscosity [mPa·s]
x1 = 0.1462 | 1.67e-07 | 1090.7 | 0.385
x1 = 0.2667 | 2.45e-07 | 1072.8 | 0.377
x1 = 0.4165 | 3.16e-07 | 1050.6 | 0.365
x1 = 0.4774 | 3.24e-07 | 1041.8 | 0.359
x1 = 0.5331 | 3.27e-07 | 1033.9 | 0.356
x1 = 0.6068 | 3.01e-07 | 1023.9 | 0.352
x1 = 0.7371 | 2.61e-07 | 1006.9 | 0.346
x1 = 0.8642 | 1.73e-07 | 991.3 | 0.345
x1 = 1 | – | 974.9 | 0.35

CC(C)CC(C)(C)C [2,2,4-trimethylpentane] + CC(C)OC(C)C
[1], x2 = 0
Conditions | speed of sound [m/s] | viscosity [mPa·s]
– | 1060.8 | 0.455

c1ccc2c(c1)CCCC2 [1,2,3,4-tetrahydronaphthalene] + CC(C)OC(C)C
[1]
Conditions | excess molar volume [m3/mol] | speed of sound [m/s] | viscosity [mPa·s]
x2 = 0 | – | 1477 | 1.749
x2 = 0.1358 | -7.08e-07 | 1396.1 | 1.445
x2 = 0.2509 | -1.135e-06 | 1342.5 | 1.223
x2 = 0.3997 | -1.459e-06 | 1276.3 | 0.976
x2 = 0.4474 | -1.505e-06 | 1253 | 0.904
x2 = 0.5718 | -1.503e-06 | 1191.8 | 0.739
x2 = 0.7163 | -1.261e-06 | 1119.7 | 0.578
x2 = 0.8473 | -8.13e-07 | 1054.2 | 0.46

CCCCCCC [heptane]
[2]
Conditions | mass density [kg/m3] | speed of sound [m/s] | viscosity [mPa·s]
298.15 K | 678.93 | – | –
303.15 K | 674.38 | 1110.5 | 0.387

Conditions | Normal boiling temperature [°C]
[2] | 98.20

CC(C)OC(C)C [diisopropyl ether] + c1ccccc1
[1]
Conditions | excess molar volume [m3/mol] | speed of sound [m/s] | viscosity [mPa·s]
x1 = 0.0962 | -1.61e-07 | 1232.1 | 0.542
x1 = 0.1813 | -2.87e-07 | 1201.5 | 0.522
x1 = 0.3084 | -4.17e-07 | 1159.2 | 0.492
x1 = 0.3375 | -4.42e-07 | 1148.4 | 0.486
x1 = 0.4703 | -4.86e-07 | 1108.5 | 0.456
x1 = 0.6323 | -4.62e-07 | 1064.1 | 0.422
x1 = 0.7927 | -3.32e-07 | 1022.2 | 0.389
x1 = 1 | – | 974.9 | 0.35

CC(C)CC(C)(C)C [2,2,4-trimethylpentane]
[2], 303.15 K
Conditions | speed of sound [m/s] | viscosity [mPa·s]
– | 1060.8 | 0.455

CCCCCC [hexane] + CC(C)OC(C)C
[1], x2 = 0
Conditions | speed of sound [m/s] | viscosity [mPa·s]
– | 1052.9 | 0.309

CC(C)OC(C)C [diisopropyl ether] + C1CCCCC1
[1]
Conditions | excess molar volume [m3/mol] | speed of sound [m/s] | viscosity [mPa·s]
x1 = 0.118 | 3.2e-08 | 1187.4 | 0.666
x1 = 0.2172 | 4.7e-08 | 1157.7 | 0.589
x1 = 0.357 | 6.3e-08 | 1117.9 | 0.513
x1 = 0.3972 | 6.6e-08 | 1106.9 | 0.494
x1 = 0.5029 | 6.9e-08 | 1080.7 | 0.452
x1 = 0.6777 | 6.3e-08 | 1041.6 | 0.403
x1 = 0.8199 | 3.9e-08 | 1011.6 | 0.373
x1 = 1 | – | 974.9 | 0.35

CCCCCCC [heptane] + CC(C)OC(C)C
[1], x2 = 0
Conditions | speed of sound [m/s] | viscosity [mPa·s]
– | 1110.5 | 0.387

CCCCCCCC [octane]
[2]
Conditions | mass density [kg/m3] | speed of sound [m/s] | viscosity [mPa·s]
298.15 K | 697.36 | – | –
303.15 K | 692.56 | 1152 | 0.477

Conditions | Normal boiling temperature [°C]
[2] | 126.00

CC(C)OC(C)C [diisopropyl ether]
[2]
Conditions | mass density [kg/m3] | speed of sound [m/s] | viscosity [mPa·s]
298.15 K | 718.14 | – | –
303.15 K | 711.97 | 974.9 | 0.35

Conditions | Normal boiling temperature [°C]
[2] | 68.20

C1CCC2CCCCC2C1 (centres undefined) [decahydronaphthalene] + CC(C)OC(C)C
[1]
Conditions | excess molar volume [m3/mol] | speed of sound [m/s] | viscosity [mPa·s]
x2 = 0 | – | 1404 | 2.091
x2 = 0.1596 | -4e-07 | 1329 | 1.586
x2 = 0.2785 | -6.03e-07 | 1282.3 | 1.289
x2 = 0.4286 | -7.39e-07 | 1220.1 | 0.989
x2 = 0.4734 | -7.6e-07 | 1199.7 | 0.913
x2 = 0.6153 | -7.24e-07 | 1141.3 | 0.706
x2 = 0.7514 | -5.84e-07 | 1084.9 | 0.553
x2 = 0.8663 | -3.59e-07 | 1035.8 | 0.448

C1CCCCC1 [cyclohexane]
[2]
Conditions | mass density [kg/m3] | speed of sound [m/s] | viscosity [mPa·s]
298.15 K | 773.98 | – | –
303.15 K | 769.14 | 1231 | 0.793

Conditions | Normal boiling temperature [°C]
[2] | 80.80

CC(C)OC(C)C [diisopropyl ether] + CC(C)CC(C)(C)C
[1]
Conditions | excess molar volume [m3/mol] | speed of sound [m/s] | viscosity [mPa·s]
x1 = 0.1561 | 1.43e-07 | 1047.6 | 0.441
x1 = 0.2397 | 2.09e-07 | 1040.4 | 0.432
x1 = 0.3083 | 2.28e-07 | 1034.5 | 0.422
x1 = 0.4565 | 2.79e-07 | 1022.6 | 0.405
x1 = 0.4804 | 2.75e-07 | 1019.7 | 0.4
x1 = 0.6222 | 2.5e-07 | 1007.5 | 0.38
x1 = 0.8133 | 1.54e-07 | 991.1 | 0.36
x1 = 0.8775 | 1.24e-07 | 985.6 | 0.355
x1 = 1 | – | 974.9 | 0.35

CC(C)OC(C)C [diisopropyl ether] + C1CCC2CCCCC2C1
[1], x1 = 1
Conditions | speed of sound [m/s] | viscosity [mPa·s]
– | 974.9 | 0.35

CCCCCCCC [octane] + CC(C)OC(C)C
[1], x2 = 0
Conditions | speed of sound [m/s] | viscosity [mPa·s]
– | 1152 | 0.477

CCCCCC [hexane]
[2]
Conditions | mass density [kg/m3] | speed of sound [m/s] | viscosity [mPa·s]
298.15 K | 654.9 | – | –
303.15 K | 650.64 | 1052.9 | 0.309

Conditions | Normal boiling temperature [°C]
[2] | 68.70

CC(C)OC(C)C [diisopropyl ether] + c1ccc2c(c1)CCCC2
[1], x1 = 1
Conditions | speed of sound [m/s] | viscosity [mPa·s]
– | 974.9 | 0.35

c1ccc2c(c1)CCCC2 [1,2,3,4-tetrahydronaphthalene]
[2]
Conditions | mass density [kg/m3] | speed of sound [m/s] | viscosity [mPa·s]
298.15 K | 965.89 | – | –
303.15 K | 955.44 | 1477 | 1.749

Conditions | Normal boiling temperature [°C]
[2] | 208.30
